target: T1, recombinant human DPP-1 (Cathepsin C) (Homo sapiens, UniProt P53634); test: DPP-1 Inhibition Assay (In Vitro), fluorogenic substrate GR-AMC; type: biochemical; settings: room temperature; 0.15 nM DPP-1, 10 uM GR-AMC, pH 7.0; average where tested multiple times
T1 construct: made in house
Method: Test compounds were assessed for DPP-1 (Cathepsin C) inhibitory activity using a fluorogenic substrate, GR-AMC (Glycine-Arginine-amino-4-methylcoumarin, Bachem, 1-1215). The amount of amino-methylcoumarin released is proportional to the DPP-1 activity, and the reaction is monitored kinetically with a Molecular Devices plate reader using black 96-well plates.
All compounds were tested under room temperature conditions. The assay buffer consisted of 50 mM HEPES, pH 7.0, 100 mM NaCl, 2 mM glutathione (GSH), and 0.002% TWEEN 20. GSH and TWEEN 20 were added to the buffer fresh daily. Just prior to use, an in-house preparation of recombinant human DPP-1 (240 μM stock, MW 49.6 kD) was diluted 600-fold in assay buffer containing fresh 2 mM dithiothreitol (DTT) to activate the enzyme, then diluted into assay buffer (without DTT) 133-fold for a DPP-1 working solution of 3 nM. Test compounds were diluted in DMSO for 20× their final assay concentrations.
Additions to a 96-well black Costar 3915 plates were as follows: 90 μL of 11 μM GR-AMC, 5 μL test compound (followed by mixing), and 5 μL 3 nM DPP1 to start the reaction. Fluorescent reactions were monitored kinetically at 360 nm excitation, 440 nm emission on a Molecular Devices Spectramax XPS reader. The Softmax Pro software of the reader determined the initial velocity of the selected data (the first 3-5 minutes of the reaction), and the best linear regression fit of the initial kinetic data. Final assay conditions were 0.15 nM DPP-1, 10 uM GR-AMC, 50 mM HEPES, pH 7.0, 100 mM NaCl, 2 mM GSH, 0.002% TWEEN 20, 1 uM DTT, 5.0% DMSO. Initial velocity rates were plotted vs. test compound concentration by use of a four-parameter logistics equation (nonlinear regression, sigmoidal dose-response (variable slope), with fixed Hill (1.0) using GraphPad Prism® software for determination of DPP-1 IC50. Within-run assay coefficient of variation (CV) was generally <10%; between-run CV <20%.
Representative compounds of the present invention were tested according to the procedure as described above, with results as listed in Table 2, below. Additionally, Table 2 below lists the measured mass for said representative compounds of the present invention, more particularly the mass of the MH^+ ion.

T1 sequence (P53634 25-463): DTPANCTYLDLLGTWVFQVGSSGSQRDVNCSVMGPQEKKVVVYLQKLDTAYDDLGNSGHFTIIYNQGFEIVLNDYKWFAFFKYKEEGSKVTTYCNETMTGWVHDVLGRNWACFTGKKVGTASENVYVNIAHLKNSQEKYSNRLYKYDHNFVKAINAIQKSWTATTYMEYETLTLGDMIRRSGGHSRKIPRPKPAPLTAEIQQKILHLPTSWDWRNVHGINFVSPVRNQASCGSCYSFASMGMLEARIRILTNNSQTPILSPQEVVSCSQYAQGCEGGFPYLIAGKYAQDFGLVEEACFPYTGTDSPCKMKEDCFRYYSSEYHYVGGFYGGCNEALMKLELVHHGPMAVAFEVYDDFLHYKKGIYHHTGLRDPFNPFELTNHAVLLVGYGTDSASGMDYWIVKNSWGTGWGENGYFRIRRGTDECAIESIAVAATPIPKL

IC50 [µM]	SMILES
26	CC[C@H](N)C(=O)NCCCC#Cc1ccccc1C(F)(F)F [Compound 74]
6	CC[C@H](N)C(=O)NCCCC#Cc1ccc2sccc2c1 [Compound 60]
2.53	CC[C@H](N)C(=O)NCCCC#Cc1cccc2ccccc12 [Compound 41]
30	CC(C)C[C@H](N)C(=O)NCCCC#Cc1cccc(OC2CCNCC2)c1 [Compound 31]
1.2	C#CC[C@H](N)C(=O)NCCCC#Cc1cccc(O[C@H]2CCCNC2)c1 [Compound 85, (S)-2-amino-N-(5-(3-((S)-piperidin-3-yloxy)phenyl)pent-4-ynyl)pent-4-ynamide]
5.92	CCCC[C@H](N)C(=O)NCCCC#Cc1cccc(OC2CCNCC2)c1 [Compound 12]
1.2	CC[C@H](N)C(=O)NCCCC#Cc1ccc(C(C)C)cc1 [Compound 95]
18	CC[C@H](N)C(=O)NCCCC#Cc1ccc(S(C)(=O)=O)cc1 [Compound 56, (S)-2-amino-N-(5-(4-(methylsulfonyl)phenyl)pent-4-ynyl)butanamide]
3.9	CC[C@H](N)C(=O)NCCCC#Cc1cccc(O[C@@H]2CCCNC2)c1 [Compound 78, (S)-2-amino-N-(5-(3-((R)-piperidin-3-yloxy)phenyl)pent-4-ynyl)butanamide]
15	CC[C@H](N)C(=O)NCCCC#Cc1ccc2c(c1)OCO2 [Compound 51]
12	N[C@@H](Cc1ccccn1)C(=O)NCCCC#Cc1cccc(OC2CCNCC2)c1 [Compound 90]
6.8	CC[C@H](N)C(=O)NCCCC#Cc1ccccc1-c1ccccc1 [Compound 61]
5.8	CC[C@H](N)C(=O)NCCCC#Cc1cccc(OC)c1 [Compound 35]
11	CC[C@H](N)C(=O)NCCCC#Cc1ccc(C(F)(F)F)cc1 [Compound 58]
7.9	CC[C@H](N)C(=O)NCCCC#Cc1ccccc1 [Compound 98]
13	CC[C@H](N)C(=O)NCCCC#Cc1c(OC)ccc2ccccc12 [Compound 87]
1.6	C#CC[C@H](N)C(=O)NCCCC#Cc1cc(OC)cc(OC2CCNCC2)c1 [Compound 7, (S)-2-amino-N-(5-(3-methoxy-5-(piperidin-4-yloxy)phenyl)pent-4-ynyl)pent-4-ynamide]
2.3	CC[C@H](N)C(=O)NCCCC#Cc1cccc(O[C@H]2CCCNC2)c1 [Compound 80, (S)-2-amino-N-(5-(3-((S)-piperidin-3-yloxy)phenyl)pent-4-ynyl)butanamide]
9.5	CC[C@H](N)C(=O)NCCCC#Cc1c(C)cc(C)cc1C [Compound 55]
12	CC[C@H](N)C(=O)NCCCC#Cc1ccccc1OC [Compound 99]
6.3	CC[C@H](N)C(=O)NCCCC#Cc1ccc(NC(C)=O)cc1 [Compound 100]

IC50 [µM]	SMILES
12	CC[C@H](N)C(=O)NCCCC#Cc1cc(OC)cc(OC)c1 [Compound 59]
7.9	CC[C@H](N)C(=O)NCCCC#Cc1cncc2ccccc12 [Compound 89]
1.37	CC[C@H](N)C(=O)NCCCC#Cc1cccc(OC2CCNCC2)c1 [Compound 9]
15.3	N[C@@H](CC1CC1)C(=O)NCCCC#Cc1cccc(OC2CCNCC2)c1 [Compound 11]
33	CC[C@H](N)C(=O)NCCCC#Cc1cc(C)ccc1C [Compound 77]
5	CC[C@H](N)C(=O)NCCCC#Cc1ccc2c(c1)OCCO2 [Compound 97]
5.4	CC[C@H](N)C(=O)NCCCC#Cc1ccccc1NC(C)=O [Compound 103]
0.52	N[C@@H](Cc1c[nH]cn1)C(=O)NCCCC#Cc1cccc(OC2CCNCC2)c1 [Compound 20]
5.6	CC[C@H](N)C(=O)NCCCC#Cc1ccc(-c2ccccc2)cc1 [Compound 81]
6	CC[C@H](N)C(=O)NCCCC#Cc1c(F)ccc2ccccc12 [Compound 106]
2.4	CC[C@H](N)C(=O)NCCCC#Cc1ccc(OCc2ccccc2)cc1 [Compound 86]
3.28	CC[C@H](N)C(=O)NCCCC#Cc1c(C)cccc1C [Compound 49]
2.9	C#CC[C@H](N)C(=O)NCCCC#Cc1cccc(O[C@@H]2CCCNC2)c1 [Compound 79, (S)-2-amino-N-(5-(3-((R)-piperidin-3-yloxy)phenyl)pent-4-ynyl)pent-4-ynamide]
0.35	CC[C@H](N)C(=O)NCCCC#Cc1ccc(F)c(F)c1 [Compound 39]
> 10	CC[C@H](N)C(=O)NCCCC#Cc1c(O)ccc2ccccc12 [Compound 105]
1.7	CC[C@H](N)C(=O)NCCCC#Cc1ccc2c(c1)Cc1ccccc1-2 [Compound 101]
2.5	N[C@@H](CCO)C(=O)NCCCC#Cc1cccc(OC2CCNCC2)c1 [Compound 15, (S)-2-amino-4-hydroxy-N-(5-(3-(piperidin-4-yloxy)phenyl)pent-4-ynyl)butanamide]
0.15	N[C@@H](Cc1cccs1)C(=O)NCCCC#Cc1cccc(OC2CCNCC2)c1 [Compound 63, (S)-2-amino-N-(5-(3-(piperidin-4-yloxy)phenyl)pent-4-ynyl)-3-(thiophen-2-yl)propanamide]
98	NCCC[C@H](N)C(=O)NCCCC#Cc1cccc(OC2CCNCC2)c1 [Compound 13]
17	CC[C@H](N)C(=O)NCCCC#Cc1cccc2cnccc12 [Compound 82]
39	CC[C@H](N)C(=O)NCCCC#Cc1ccccc1C1CCCCC1 [Compound 75]

IC50 [µM]	SMILES
9.1	N[C@@H](Cn1cccn1)C(=O)NCCCC#Cc1cccc(OC2CCNCC2)c1 [Compound 19, (S)-2-amino-N-(5-(3-(piperidin-4-yloxy)phenyl)pent-4-ynyl)-3-(1H-pyrazol-1-yl)propanamide]
1.64	C=CCC[C@H](N)C(=O)NCCCC#Cc1cccc(OC2CCNCC2)c1 [Compound 8]
12.8	CC(C)[C@H](N)C(=O)NCCCC#Cc1cccc(OC2CCNCC2)c1 [Compound 16, (S)-2-amino-3-methyl-N-(5-(3-(piperidin-4-yloxy)phenyl)pent-4-ynyl)butanamide]
6.1	CC[C@H](N)C(=O)NCCCC#Cc1cccc(F)c1F [Compound 102]
> 100	CC[C@@H](N)C(=O)NCCCC#Cc1cccc(OC2CCNCC2)c1 [Compound 71]
1.7	CCC[C@H](N)C(=O)NCCCC#Cc1cccc(OC2CCNCC2)c1 [Compound 18, (S)-2-amino-N-(5-(3-(piperidin-4-yloxy)phenyl)pent-4-ynyl)pentanamide]
8	CC[C@H](N)C(=O)NCCCC#Cc1ccccc1O [Compound 104]
7.2	CC[C@H](N)C(=O)NCCCC#Cc1ccc(F)c2ccccc12 [Compound 84]
0.214	CC[C@H](N)C(=O)NCCCC#Cc1ccc(OC)cc1 [Compound 40]
0.39	C#CC[C@H](N)C(=O)NCCCC#Cc1cccc(OC2CCNCC2)c1 [Compound 3, (S)-2-amino-N-(5-(3-(piperidin-4-yloxy)phenyl)pent-4-ynyl)pent-4-ynamide]
14	CC[C@H](N)C(=O)NCCCC#Cc1c(C)c(C)cc(C)c1C [Compound 76]
8.5	CC[C@H](N)C(=O)NCCCC#Cc1ccc(C)c2ccccc12 [Compound 83]
2.43	C#CC[C@H](N)C(=O)NCCC#Cc1cccc(OC2CCNCC2)c1 [Compound 6, (S)-2-amino-N-(4-(3-(piperidin-4-yloxy)phenyl)but-3-ynyl)pent-4-ynamide]
17	CC[C@H](N)C(=O)NCCCC#Cc1ccc(OC)c(OC)c1 [Compound 57]
15	CC[C@H](N)C(=O)NCCCC#Cc1ccc2ccccc2c1 [Compound 73]
15.3	N[C@@H](Cc1ccccc1)C(=O)NCCCC#Cc1cccc(OC2CCNCC2)c1 [Compound 1]
0.4	C#CC[C@H](N)C(=O)NCCCC#Cc1cccc(-c2ccccc2)c1 [Compound 24]
17	CC[C@@H](N)C(=O)NCCCC#Cc1cccc(OC)c1 [Compound 92]
15	N[C@@H](Cc1cccnc1)C(=O)NCCCC#Cc1cccc(OC2CCNCC2)c1 [Compound 33]
